Literature values, collected in PMC3459150 (Atherosclerosis, 2012).

What was measured:
[1] = apo E null mice
[2] = tested on: dyslipidemic mouse models
apoE null mice = conditions: chronic administration

In the case of DWFKAFYDKVAEKFKEAF [4F], the Half-time of clearance ([1]; peritoneally-injected) is given as 2.01 h, the Inhibition of atherosclerosis [2] is given as “able to inhibit atherosclerosis” and the Plasma cholesterol levels [2] is given as “without changing plasma cholesterol levels”.
For “LRKLRKRLLRDWLKAFYDKVAEKLKEAF [Ac-hE18A-NH2]”, the “Half-time of clearance, rapid phase” value ([1]; intravenous, bi-phasic) is given as 0.027 h, the “Half-time of clearance, slow phase” value ([1]; intravenous, bi-phasic) is given as 1.61 h and the “Atheroprotection / inhibition of atherosclerosis” value (apoE null mice) is given as “inhibits atherosclerosis”.
